Results taken from ChEMBL document CHEMBL5038625, “Application of the dual-tail approach for the design and synthesis of novel Thiopyrimidine-Benzenesulfonamide hybrids as selective carbonic anhydrase inhibitors” (Eur J Med Chem, 2022).
pIC50, pKi: −log10 of the molar value.

Key:
Carbonic anhydrase 9 = Carbonic anhydrase 9 (Homo sapiens, UniProt Q16790); test: Inhibition of human CA9 preincubated for 15 mins by phenol red dye based stopped flow CO2 hydration assay
Carbonic anhydrase 1 = Carbonic anhydrase 1 (Homo sapiens, UniProt P00915); test: Inhibition of human CA1 preincubated for 15 mins by phenol red dye based stopped flow CO2 hydration assay
Carbonic anhydrase 2 = Carbonic anhydrase 2 (Homo sapiens, UniProt P00918); test: Inhibition of human CA2 preincubated for 15 mins by phenol red dye based stopped flow CO2 hydration assay
UO-31 = test: Antiproliferative activity against human UO-31 cells assessed as cell growth inhibition at 10 uM incubated for 24 hrs by sulforhodamine B assay; assay type: functional; conditions: read-out: GI
SNB-75 = test: Antiproliferative activity against human SNB-75 cells assessed as cell growth inhibition at 10 uM incubated for 24 hrs by sulforhodamine B assay; assay type: functional; conditions: read-out: GI
A549 = test: Antiproliferative activity against human A549 cells assessed as cell growth inhibition at 10 uM incubated for 24 hrs by sulforhodamine B assay; assay type: functional; conditions: read-out: GI
Malme-3M = test: Antiproliferative activity against human Malme-3M cells assessed as cell growth inhibition at 10 uM incubated for 24 hrs by sulforhodamine B assay; assay type: functional; conditions: read-out: GI
MDA-MB-231 [1] = test: Antiproliferative activity against human MDA-MB-231 cells assessed as reduction in cell viability incubated for 24 hrs by sulforhodamine B assay; assay type: functional, cell-based; conditions: MDA-MB-231, 24 h
NCI-H522 = test: Antiproliferative activity against human NCI-H522 cells assessed as cell growth inhibition at 10 uM incubated for 24 hrs by sulforhodamine B assay; assay type: functional; conditions: read-out: GI
CCRF-CEM = test: Antiproliferative activity against human CCRF-CEM cells assessed as cell growth inhibition at 10 uM incubated for 24 hrs by sulforhodamine B assay; assay type: functional; conditions: read-out: GI
CAKI-1 = test: Antiproliferative activity against human CAKI-1 cells assessed as cell growth inhibition at 10 uM incubated for 24 hrs by sulforhodamine B assay; assay type: functional; conditions: read-out: GI
SR = test: Antiproliferative activity against human SR cells assessed as cell growth inhibition at 10 uM incubated for 24 hrs by sulforhodamine B assay; assay type: functional; conditions: read-out: GI
HCT-15 = test: Antiproliferative activity against human HCT-15 cells assessed as cell growth inhibition at 10 uM incubated for 24 hrs by sulforhodamine B assay; assay type: functional; conditions: read-out: GI
T47D [2] = test: Antiproliferative activity against human T47D cells assessed as cell growth inhibition at 10 uM incubated for 24 hrs by sulforhodamine B assay; assay type: functional; conditions: read-out: GI
RPMI-8226 = test: Antiproliferative activity against human RPMI-8226 cells assessed as cell growth inhibition at 10 uM incubated for 24 hrs by sulforhodamine B assay; assay type: functional; conditions: read-out: GI
PC-3 = test: Antiproliferative activity against human PC-3 cells assessed as cell growth inhibition at 10 uM incubated for 24 hrs by sulforhodamine B assay; assay type: functional; conditions: read-out: GI
U-251 = test: Antiproliferative activity against human U-251 cells assessed as cell growth inhibition at 10 uM incubated for 24 hrs by sulforhodamine B assay; assay type: functional; conditions: read-out: GI
MDA-MB-231 [3] = test: Antiproliferative activity against human MDA-MB-231 cells assessed as cell growth inhibition at 10 uM incubated for 24 hrs by sulforhodamine B assay; assay type: functional; conditions: read-out: GI
OVCAR-4 = test: Antiproliferative activity against human OVCAR-4 cells assessed as cell growth inhibition at 10 uM incubated for 24 hrs by sulforhodamine B assay; assay type: functional; conditions: read-out: GI
K562 = test: Antiproliferative activity against human K562 cells assessed as cell growth inhibition at 10 uM incubated for 24 hrs by sulforhodamine B assay; assay type: functional; conditions: read-out: GI
MOLT-4 = test: Antiproliferative activity against human MOLT-4 cells assessed as cell growth inhibition at 10 uM incubated for 24 hrs by sulforhodamine B assay; assay type: functional; conditions: read-out: GI
MCF7 [4] = test: Antiproliferative activity against human MCF7 cells assessed as reduction in cell viability incubated for 24 hrs by sulforhodamine B assay; assay type: functional, cell-based; conditions: MCF7, 24 h
T47D [5] = test: Antiproliferative activity against human T47D cells assessed as reduction in cell viability incubated for 24 hrs by sulforhodamine B assay; assay type: functional, cell-based
UACC-62 = test: Antiproliferative activity against human UACC-62 cells assessed as cell growth inhibition at 10 uM incubated for 24 hrs by sulforhodamine B assay; assay type: functional; conditions: read-out: GI
KM12 = test: Antiproliferative activity against human KM12 cells assessed as cell growth inhibition at 10 uM incubated for 24 hrs by sulforhodamine B assay; assay type: functional; conditions: read-out: GI
ACHN = test: Antiproliferative activity against human ACHN cells assessed as cell growth inhibition at 10 uM incubated for 24 hrs by sulforhodamine B assay; assay type: functional; conditions: read-out: GI
HOP-92 = test: Antiproliferative activity against human HOP-92 cells assessed as cell growth inhibition at 10 uM incubated for 24 hrs by sulforhodamine B assay; assay type: functional; conditions: read-out: GI
HL-60 = test: Antiproliferative activity against human HL-60 cells assessed as cell growth inhibition at 10 uM incubated for 24 hrs by sulforhodamine B assay; assay type: functional; conditions: read-out: GI
MCF7 [6] = test: Antiproliferative activity against human MCF7 cells assessed as cell growth inhibition at 10 uM incubated for 24 hrs by sulforhodamine B assay; assay type: functional; conditions: read-out: GI
MDA-MB-468 = test: Antiproliferative activity against human MDA-MB-468 cells assessed as cell growth inhibition at 10 uM incubated for 24 hrs by sulforhodamine B assay; assay type: functional; conditions: read-out: GI
RXF 393 = test: Antiproliferative activity against human RXF 393 cells assessed as cell growth inhibition at 10 uM incubated for 24 hrs by sulforhodamine B assay; assay type: functional; conditions: read-out: GI
SNB-19 = test: Antiproliferative activity against human SNB-19 cells assessed as cell growth inhibition at 10 uM incubated for 24 hrs by sulforhodamine B assay; assay type: functional; conditions: read-out: GI
SF-539 = test: Antiproliferative activity against human SF-539 cells assessed as cell growth inhibition at 10 uM incubated for 24 hrs by sulforhodamine B assay; assay type: functional; conditions: read-out: GI
NCI-H23 = test: Antiproliferative activity against human NCI-H23 cells assessed as cell growth inhibition at 10 uM incubated for 24 hrs by sulforhodamine B assay; assay type: functional; conditions: read-out: GI
SN12C = test: Antiproliferative activity against human SN12C cells assessed as cell growth inhibition at 10 uM incubated for 24 hrs by sulforhodamine B assay; assay type: functional; conditions: read-out: GI
LOX IMVI = test: Antiproliferative activity against human LOX IMVI cells assessed as cell growth inhibition at 10 uM incubated for 24 hrs by sulforhodamine B assay; assay type: functional; conditions: read-out: GI
NCI-H226 = test: Antiproliferative activity against human NCI-H226 cells assessed as cell growth inhibition at 10 uM incubated for 24 hrs by sulforhodamine B assay; assay type: functional; conditions: read-out: GI
HCT-116 = test: Antiproliferative activity against human HCT-116 cells assessed as cell growth inhibition at 10 uM incubated for 24 hrs by sulforhodamine B assay; assay type: functional; conditions: read-out: GI

Chain of Carbonic anhydrase 1 (P00915 whole entry): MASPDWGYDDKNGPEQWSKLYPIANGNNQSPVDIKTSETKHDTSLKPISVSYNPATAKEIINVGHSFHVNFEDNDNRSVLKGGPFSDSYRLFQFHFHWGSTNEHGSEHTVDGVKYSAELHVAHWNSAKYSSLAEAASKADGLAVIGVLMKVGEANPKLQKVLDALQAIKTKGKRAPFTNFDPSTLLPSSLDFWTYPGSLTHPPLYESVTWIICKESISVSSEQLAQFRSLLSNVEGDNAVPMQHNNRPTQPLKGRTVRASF

Work on `COc1ccc(C(=O)CSc2nc(Nc3ccc(S(N)(=O)=O)cc3)c(C#N)c(-c3ccc(C)cc3)n2)cc1` yielded a pKi (Carbonic anhydrase 9) of 5.06.

`COc1ccc(C(=O)CSc2nc(Nc3cccc(S(N)(=O)=O)c3)c(C#N)c(-c3ccc(C)cc3)n2)cc1` gave a pKi (Carbonic anhydrase 9) of 6.06.

Work on `COc1ccc(C(=O)CSc2nc(Nc3ccc(S(N)(=O)=O)cc3)c(C#N)c(-c3cc(OC)ccc3OC)n2)cc1` yielded a pKi (Carbonic anhydrase 1) of less than 4.70 and a pKi (Carbonic anhydrase 9) of 5.05.

Molecule `COc1ccc(OC)c(-c2nc(SCC(=O)c3ccccc3)nc(Nc3cccc(S(N)(=O)=O)c3)c2C#N)c1` has a pKi (Carbonic anhydrase 2) of less than 4.70 and a pKi (Carbonic anhydrase 9) of 5.30.

With `COc1ccc(C(=O)CSc2nc(Nc3cccc(S(N)(=O)=O)c3)cc(-c3ccccc3)n2)cc1` the inhibition of growth at 10 µM (UO-31) was 16.4%, the inhibition of growth at 10 µM (SNB-75) was 12.3% and the inhibition of growth at 10 µM (A549) was 7.98%. For the same molecule, the inhibition of growth at 10 µM (Malme-3M) was 7.42%, the pIC50 (MDA-MB-231 [1]) was 4.37 and the pKi (Carbonic anhydrase 1) was less than 4.70. The inhibition of growth at 10 µM (NCI-H522) was 6.62%, the pKi (Carbonic anhydrase 2) was less than 4.70 and the inhibition of growth at 10 µM (CCRF-CEM) was 16.9%. The inhibition of growth at 10 µM (CAKI-1) was 7.16%, the inhibition of growth at 10 µM (SR) was 23.7% and the inhibition of growth at 10 µM (HCT-15) was 13.8%. For the same molecule, the inhibition of growth at 10 µM (T47D [2]) was 20.2%, the inhibition of growth at 10 µM (RPMI-8226) was 6.7% and the inhibition of growth at 10 µM (PC-3) was 15.8%. It also gave an inhibition of growth at 10 µM (U-251) of 6.41%, a pKi (Carbonic anhydrase 9) of 6.52 and an inhibition of growth at 10 µM (MDA-MB-231 [3]) of 6.45%. It also gave an inhibition of growth at 10 µM (OVCAR-4) of 12.2%, an inhibition of growth at 10 µM (K562) of 12.7% and an inhibition of growth at 10 µM (MOLT-4) of 26.2%. For the same molecule, the pIC50 (MCF7 [4]) was 4.51, the pIC50 (T47D [5]) was 4.55 and the inhibition of growth at 10 µM (UACC-62) was 8.31%. It also gave an inhibition of growth at 10 µM (KM12) of 6.88%.

`COc1ccc(C(=O)CSc2nc(Nc3cccc(S(N)(=O)=O)c3)c(C#N)c(C(C)C)n2)cc1` gave an inhibition of growth at 10 µM (UO-31) of 20.4%, an inhibition of growth at 10 µM (ACHN) of 6.14% and an inhibition of growth at 10 µM (NCI-H522) of 6.43%. The pKi (Carbonic anhydrase 2) was less than 4.70, the inhibition of growth at 10 µM (CCRF-CEM) was 6.87% and the inhibition of growth at 10 µM (CAKI-1) was 10.8%. It also gave an inhibition of growth at 10 µM (HOP-92) of 11.6%, an inhibition of growth at 10 µM (HL-60) of 6.4% and an inhibition of growth at 10 µM (MCF7 [6]) of 12.9%. It also gave an inhibition of growth at 10 µM (SR) of 11%, an inhibition of growth at 10 µM (HCT-15) of 6.79% and an inhibition of growth at 10 µM (T47D [2]) of 14.2%. For the same molecule, the inhibition of growth at 10 µM (MDA-MB-468) was 8.74%, the inhibition of growth at 10 µM (RPMI-8226) was 5.91% and the inhibition of growth at 10 µM (PC-3) was 7.35%. It also gave a pKi (Carbonic anhydrase 9) of 7.02, an inhibition of growth at 10 µM (K562) of 18.5% and an inhibition of growth at 10 µM (MOLT-4) of 13.4%. The inhibition of growth at 10 µM (RXF 393) was 10.2%, the inhibition of growth at 10 µM (SNB-19) was 5.74% and the inhibition of growth at 10 µM (SF-539) was 7.32%. The inhibition of growth at 10 µM (NCI-H23) was 11% and the inhibition of growth at 10 µM (UACC-62) was 11.6%.

Molecule `Cc1ccc(-c2nc(SCC(=O)c3ccc(Br)cc3)nc(Nc3cccc(S(N)(=O)=O)c3)c2C#N)cc1` has an inhibition of growth at 10 µM (SN12C) of 5.02%, an inhibition of growth at 10 µM (UO-31) of 36.7% and a pIC50 (MDA-MB-231 [1]) of less than 4.00. For the same molecule, the inhibition of growth at 10 µM (CCRF-CEM) was 6.1%, the inhibition of growth at 10 µM (CAKI-1) was 20% and the inhibition of growth at 10 µM (HOP-92) was 67.2%. It also gave an inhibition of growth at 10 µM (MCF7 [6]) of 7.76%, an inhibition of growth at 10 µM (SR) of 11.3% and an inhibition of growth at 10 µM (HCT-15) of 5.65%. The inhibition of growth at 10 µM (T47D [2]) was 6.01%, the inhibition of growth at 10 µM (LOX IMVI) was 11.8% and the inhibition of growth at 10 µM (PC-3) was 13.4%. It also gave an inhibition of growth at 10 µM (NCI-H226) of 12.7%, a pKi (Carbonic anhydrase 9) of 7.05 and an inhibition of growth at 10 µM (MDA-MB-231 [3]) of 6.75%. The inhibition of growth at 10 µM (HCT-116) was 8.06%, the inhibition of growth at 10 µM (K562) was 6.32% and the inhibition of growth at 10 µM (MOLT-4) was 9.7%. It also gave an inhibition of growth at 10 µM (RXF 393) of 17.6%, an inhibition of growth at 10 µM (SF-539) of 17.5% and an inhibition of growth at 10 µM (NCI-H23) of 7.38%. For the same molecule, the pIC50 (MCF7 [4]) was less than 4.00 and the pIC50 (T47D [5]) was 4.22.

Molecule `NS(=O)(=O)c1cccc(Nc2cc(-c3ccccc3)nc(SCC(=O)c3ccccc3)n2)c1` has a pKi (Carbonic anhydrase 9) of 6.14.
